Source: patent US8530388B2, “Cyclopentadione derived herbicides” (Syngenta Limited, priority 2009, dated 2013)

Key:
Type in all cases: in vivo
[1] = system: Echinochloa crus-galli (ECHCG); experiment: Post-emergence herbicidal activity, glasshouse pot test; details: 312 h, rate 250 g/ha, evaluated after 13 days, read-out: Post-emergence activity, ECHCG (100=total damage to plant; 0=no damage to plant)
Experimental: (§1) Seeds of a variety of test species were sown in standard soil in pots. After cultivation for one day (pre-emergence) or after 8 days cultivation (post-emergence) under controlled conditions in a glasshouse (at 24/16° C., day/night; 14 hours light; 65% humidity), the plants were sprayed with an aqueous spray solution derived from the formulation of the technical active ingredient in acetone/water (50:50) solution containing 0.5% Tween 20 (polyoxyethelyene sorbitan monolaurate, CAS RN 9005-64-5). The test plants were then grown in a glasshouse under controlled conditions in a glasshouse (at 24/16° C., day/night; 14 hours light; 65% humidity) and watered twice daily. After 13 days for pre and post-emergence, the test was evaluated (100=total damage to plant; 0=no damage to plant).
(§2) Test plants: Setaria faberi (SETFA), Lolium perenne (LOLPE), Alopecurus myosuroides (ALOMY), Echinochloa crus-galli (ECHCG), and Avena fatua (AVEFA)

Avena fatua (AVEFA) [2] = experiment: as above; details: 312 h, rate 250 g/ha, evaluated after 13 days, read-out: Post-emergence activity, AVEFA (100=total damage to plant; 0=no damage to plant)
Experimental: as §1, §2

Lolium perenne (LOLPE) [3] = experiment: as above; details: 312 h, rate 250 g/ha, evaluated after 13 days, read-out: Post-emergence activity, LOLPE (100=total damage to plant; 0=no damage to plant)
Experimental: as §1, §2

[4] = system: Alopecurus myosuroides (ALOMY); experiment: as above; details: 312 h, rate 250 g/ha, evaluated after 13 days, read-out: Post-emergence activity, ALOMY (100=total damage to plant; 0=no damage to plant)
Experimental: as §1, §2

[5] = system: Echinochloa crus-galli (ECHCG); experiment: Pre-emergence herbicidal activity, glasshouse pot test; details: 312 h, Rate 250 g/ha, sprayed one day after sowing, evaluated after 13 days, 100=total damage to plant, 0=no damage to plant
Experimental: as §1, with “plant). Test plants: Setaria faberi (SETFA), Lolium perenne (LOLPE), Alopecurus myosuroides (ALOMY), Echinochloa crus-galli (ECHCG), and Avena fatua (AVEFA) Pre-Emergence Activity” for “plant).”

Avena fatua (AVEFA) [6] = experiment: as above; details: 312 h, Rate 250 g/ha, sprayed one day after sowing, evaluated after 13 days, 100=total damage to plant, 0=no damage to plant
Experimental: as §1, with “plant). Test plants: Setaria faberi (SETFA), Lolium perenne (LOLPE), Alopecurus myosuroides (ALOMY), Echinochloa crus-galli (ECHCG), and Avena fatua (AVEFA) Pre-Emergence Activity” for “plant).”

Lolium perenne (LOLPE) [7] = experiment: as above; details: 312 h, Rate 250 g/ha, sprayed one day after sowing, evaluated after 13 days, 100=total damage to plant, 0=no damage to plant
Experimental: as §1, with “plant). Test plants: Setaria faberi (SETFA), Lolium perenne (LOLPE), Alopecurus myosuroides (ALOMY), Echinochloa crus-galli (ECHCG), and Avena fatua (AVEFA) Pre-Emergence Activity” for “plant).”

[8] = system: Alopecurus myosuroides (ALOMY); experiment: as above; details: 312 h, Rate 250 g/ha, sprayed one day after sowing, evaluated after 13 days, 100=total damage to plant, 0=no damage to plant
Experimental: as §1, with “plant). Test plants: Setaria faberi (SETFA), Lolium perenne (LOLPE), Alopecurus myosuroides (ALOMY), Echinochloa crus-galli (ECHCG), and Avena fatua (AVEFA) Pre-Emergence Activity” for “plant).”

Row | SMILES | pest or weed control at 250 g/ha [1] [%] | pest or weed control at 250 g/ha (Avena fatua (AVEFA) [2]) [%] | pest or weed control at 250 g/ha (Lolium perenne (LOLPE) [3]) [%] | pest or weed control at 250 g/ha [4] [%] | pest or weed control at 250 g/ha [5] [%] | pest or weed control at 250 g/ha (Avena fatua (AVEFA) [6]) [%] | pest or weed control at 250 g/ha (Lolium perenne (LOLPE) [7]) [%] | pest or weed control at 250 g/ha [8] [%]
1 | CCc1ccc(-c2ccc3ccccc3c2)cc1C1=C(O)CCC1=O [Compound T-7] | 20 | 10 | 30 | 10 | 20 | 0 | 10 | 0
2 | CCc1ccc(-c2cc(Cl)c(F)cc2F)cc1C1=C(O)CCC1=O [Compound T-22] | 60 | 10 | 10 | 30 | 30 | 0 | 10 | 0
3 | CCc1ccc(-c2ccc(Cl)c(F)c2)cc1C1=C(O)CCC1=O [Compound T-9] | 100 | 60 | 60 | 30 | 90 | 50 | 80 | 60
4 | CCc1ccc(-c2ccc(Cl)c(F)c2Cl)cc1C1=C(O)CCC1=O [Compound T-11] | 90 | 30 | 50 | 60 | 50 | 10 | 30 | 20
5 | O=C1CCC(O)=C1c1cc(-c2ccc(Cl)cc2Cl)ccc1C1CC1 [Compound T-24, 2-(2′,4′-dichloro-4-cyclopropylbiphenyl-3-yl)-cyclopentane-1,3-dione] | 100 | 10 | 50 | 30 | 80 | 0 | 50 | 0
6 | CCc1ccc(-c2cc(Cl)c(Cl)cc2Cl)cc1C1=C(O)CCC1=O [Compound T-16] | 80 | 80 | 60 | 50 | 50 | 0 | 20 | 0
7 | CCc1ccc(-c2cc(F)c(Cl)c(F)c2)cc1C1=C(O)CCC1=O [Compound T-21] | 40 | 20 | 30 | 30 | 40 | 10 | 100 | 40
8 | CCc1ccc(-c2ccc(Cl)c(Cl)c2Cl)cc1C1=C(O)CCC1=O [Compound T-20] | 70 | 10 | 20 | 20 | 30 | 0 | 10 | 0
9 | CCc1ccc(-c2ccc(Cl)c(OC)c2)cc1C1=C(O)CCC1=O [Compound T-6] | 90 | 10 | 60 | 50 | 60 | 0 | 30 | 0
10 | CCc1ccc(-c2ccc(Cl)c(F)c2F)cc1C1=C(O)CCC1=O [Compound T-12] | 90 | 50 | 50 | 50 | 50 | 30 | 50 | 40
11 | CCc1ccc(-c2ccc(Cl)cc2)cc1C1=C(O)CCC1=O [Compound T-1, 2-(4′-chloro-4-ethylbiphen-3-yl)-1,3-cyclopentanedione] | 100 | 90 | – | 80 | 100 | 70 | – | 90
12 | CCc1ccc(-c2ccc(Cl)c(C(F)(F)F)c2F)cc1C1=C(O)CCC1=O [Compound T-19] | 70 | 20 | 60 | 60 | 10 | 0 | 20 | 0
13 | CCc1ccc(-c2ccc(Cl)c(C)c2)cc1C1=C(O)CCC1=O [Compound T-15] | 30 | 0 | 30 | 10 | 0 | 0 | 0 | 0
14 | CCc1ccc(-c2ccc(F)cc2)cc1C1=C(O)CCC1=O [Compound T-17] | 70 | 40 | 50 | 50 | 80 | 0 | 60 | 40
15 | CCc1ccc(-c2ccc(Cl)c(Cl)c2F)cc1C1=C(O)CCC1=O [Compound T-13] | 60 | 0 | 40 | 10 | 0 | 0 | 0 | 0
16 | CCc1ccc(-c2ccc(Cl)cc2F)cc1C1=C(O)CCC1=O [Compound T-3, 2-(4′-chloro-4-ethyl-2′-fluorobiphenyl-3-yl)cyclopentane-1,3-dione] | 100 | 90 | 40 | 30 | 100 | 60 | 90 | 30
17 | CCc1ccc(-c2ccc(Cl)cc2Cl)cc1C1=C(O)CCC1=O [Compound T-14] | 70 | 30 | 30 | 30 | 50 | 0 | 30 | 10
18 | CCc1ccc(-c2ccc(Cl)cc2)cc1C1=C(O)C2CSCC2C1=O (centres unmarked) [Compound T-2, 5-(4′-Chloro-4-ethylbiphenyl-3-yl)-tetrahydrocyclopenta[c]thiophene-4,6-dione] | 100 | 80 | 0 | 20 | 70 | 0 | 0 | 0
19 | CCc1ccc(-c2ccc(C(F)(F)F)cc2)cc1C1=C(O)CCC1=O [Compound T-18] | 100 | 90 | 70 | 80 | 50 | 30 | 30 | 50
20 | CCc1ccc(-c2ccc(Cl)cc2C)cc1C1=C(O)CCC1=O [Compound T-4] | 70 | 0 | 30 | 50 | 50 | 10 | 60 | 50
